Reference: paper PMC9586926, “An efflux-susceptible antibiotic-adjuvant with systemic efficacy against mouse infections” (Scientific Reports, 2022)
pIC50: −log10 of the molar value. Where a SMILES comes first, the peptide text is derived from it. [ ]: non-standard residue; d: D form. The star is where a group is joined. 12Ado = NCCCCCCCCCCCC(=O)O; Decanoyl = CCCCCCCCCC(=O)*; Dab = NCC[C@H](N)C(=O)O

Legend:
A. baumannii = experiment: MIC, broth microdilution; format: cell-based, Acinetobacter baumannii; conditions: broth microdilution in LB, 18–24 h, 37 °C; n = 1 strain
From the text: (§1) Bacteria used in this study consisted of standard American Type Culture Collection (ATCC; Biological Industries, Beit Haemek, Israel) strains, clinically isolated (CI; Sourasky Medical Center, Tel Aviv, Israel) strains, as well as isogenic mutant strains. Gram-negative bacteria included Acinetobacter baumannii ATCC 19606; Escherichia coli ATCC 25922, 35218, CFT073, CI 14384, 16327, and the isogenic pair Ag100 (wild-type) and its efflux deficient mutant Ag100a (ΔacrAB); Klebsiella pneumoniae CI 1287, 224; Pseudomonas aeruginosa ATCC 27853, CI 1278, 8634; Salmonella enterica serovar Typhimurium ATCC 14028 (wild-type) and its isogenic efflux deficient mutant ΔacrAB. Bacteria were grown in Luria–Bertani broth (LB; 5 g/l NaCl, 5 g/l yeast extract, 10 g/l tryptone; pH = 7.0) at 37 °C with shaking. Over-night cultures were diluted 10-folds into fresh growth-medium and incubated at 37 °C with shaking until reaching mid-logarithmic phase. Then, bacterial concentrations were adjusted using O.D.600 nm measurements, and bacteria were subjected to the experimental procedures listed herein.
(§2) MIC was determined according to the broth microdilution method: antimicrobials were subjected to serial twofold dilutions in LB medium, and incubated with 5 × 10^5 CFU/ml of bacteria (final volume of 200 µl) for 18–24 h at 37 °C. Then, O.D.620 nm was measured (BioTek Instruments Synergy HT; Winooski, VT, USA), and the MIC was defined as the lowest antimicrobial concentration for which no increase in O.D.620 nm was evident, compared to the untreated control.

UPEC CFT073 = experiment: Urinary-tract infection model; format: in vivo, mice
Protocol: The study is reported in accordance with ARRIVE guidelines.
Lipopeptides potential application in monotherapy and/or combination-therapies was explored with two infection models. In the peritonitis-sepsis model, mice (n = 10 per group) were first rendered neutropenic by two intraperitoneal (I.P.) injections of 0.3 ml containing 150 mg/kg and 100 mg/kg cyclophosphamide, administered 4 days and 1 day before the experiment, respectively. […] Mice survival was recorded for up to 7 days. In a variant assay, bacteria in PBS (1.4 × 10^6) were pre-treated with 10 µM lipopeptides for 15 min, similarly administered, and mice survival was recorded for up to 3 days. In the urinary-tract infection (UTI) model, mice (N = 5 mice per group) were anesthetized by a single I.P. injection (0.2 ml) containing a mixture of ketamine (100 mg/kg) and xylazine (5 mg/kg). Following application of an analgesic 2% lidocaine gel on their penises, mice were infected intra-urethraly using a 24-gauge catheter with 1.2 × 10^8 CFU/mouse (0.05 ml) and treated with the vehicle control (S.C., 1 h post-infection), 2 mg/kg rifampin (oral gavage, immediately before anesthesia), 7.5 mg/kg q.i.d. lipopeptides (S.C., starting 1 h post-infection), or both. Mice were sacrificed 24 h post-infection, their bladder and kidneys aseptically excised, suspended in 5 ml of sterile PBS, homogenized for 3 min using a bench-top homogenizer, serially tenfold diluted in saline, plated on LB agar, and incubated over-night at 37 °C for enumeration.

RAW 264.7 = experiment: Cytotoxicity, Alamar blue; format: cell-based, murine; conditions: 24 h incubation, read-out: IC50 RAW 264.7 (50% inhibition of cells respiration)
Protocol: (§3) Cell lines used in this study included murine RAW 264.7 macrophages and human embryonic kidney HEK-293FT cells (ATCC, Biological Industries, Beit Haemek, Israel). Cells were grown in Dulbecco’s modified eagle medium (DMEM) containing […] glucose, L-glutamine, sodium bicarbonate and sodium pyruvate, supplemented with 10% fetal bovine serum and pen-strep, at 37 °C and 5% CO2.
(§4) Lipopeptides cytotoxicity was determined using fluorescent measurements of reduced resazurin. 2 × 10^4 cells were first cultured in 96-well plates over-night (final volume of 100 µl) at 37 °C and 5% CO2. Then, the medium was removed and cells were incubated for an additional 24 h with serial twofold dilutions of the lipopeptides in growth medium. Then, 10 µl of Alamar blue were added and plates were incubated for 3 h, after which fluorescence (excitation: 530 nm; emission: 590 nm) of the reduced resazurin was recorded (BioTek Instruments Synergy HT; Winooski, VT, USA).

K. pneumoniae = experiment: MIC, broth microdilution; format: cell-based, Klebsiella pneumoniae; conditions: broth microdilution in LB, 18–24 h, 37 °C; n = 2 strains
From the text: as §1, §2

E. coli Ag100a (ΔacrAB) = experiment: MIC, broth microdilution, efflux deficient mutant; format: cell-based, Escherichia coli; conditions: E. coli Ag100a (ΔacrAB) versus Ag100
From the text: as §1
MIC was determined according to the broth microdilution method: antimicrobials were subjected to serial twofold dilutions in LB medium, and incubated with 5 × 10^5 CFU/ml of bacteria (final volume of 200 µl) for 18–24 h at 37 °C. […]

HEK-293FT = experiment: Cytotoxicity, Alamar blue; format: cell-based, human; conditions: 24 h incubation, read-out: IC50 HEK-293FT (50% inhibition of cells respiration)
Protocol: as §3, §4

E. coli 25922 = experiment: Growth / time-kill kinetics; format: cell-based, Escherichia coli; conditions: 10 µM C10BBc12B, 1 µg/ml erythromycin or 20 ng/ml rifampin alone
Protocol: Antimicrobials mode of action was determined according to the rate of bacterial killing. Varying concentrations of lipopeptides, antibiotics and combinations thereof were mixed in LB medium with 5 × 10^5 CFU/ml of bacteria (final volume of 1 ml) and incubated at 37 °C with shaking. At the designated time-points aliquots were serially tenfold diluted in saline, plated on LB agar, and incubated over-night at 37 °C for enumeration.

CCCCCCCCCC(=O)N[C@@H](CCN)C(=O)N[C@@H](CCN)C(=O)NCCCCCCCCCCCC(=O)N[C@@H](CCN)C(N)=O [C10BBc12B, decanoyl-bis.diaminobutyrate-aminododecanoyl-diaminobutyrate-amide] (Decanoyl-[Dab][Dab][12Ado][Dab]-NH2)
MIC A. baumannii (n=1) (A. baumannii): > 50 µM
bladder bacterial load (UPEC CFT073; 24 h post-infection, 2 mg/kg rifampin, 7.5 mg/kg q.i.d. C10BBc12B or both, n = 5): no reduction in bacterial load
efficacy of single dose regimen (UPEC CFT073; single dose 7.5 or […] 1 h post infection, alone or in combination with rifampin): essentially ineffective
pIC50 (RAW 264.7): < 4.30
MIC K. pneumoniae (n=2) (K. pneumoniae): > 50 µM
MIC change against efflux deficient mutant versus wild-type (E. coli Ag100a (ΔacrAB)): eightfold reduction in MIC value
pIC50 (HEK-293FT): < 4.30
effect on bacterial proliferation, individual agent (E. coli 25922): unable to significantly alter bacterial proliferation
